{"source": "the NIST ThermoML archive (doi:10.1016/j.jct.2009.06.014)", "test": "xn = mol fraction of the nth substance listed", "settings": "101 kPa, Liquid, Vibrating tube method, x1 = 1", "note": "Numbers after ± are expanded uncertainties."}
{"compound": "O", "note": "[water] + C1CCOC1", "values": [{"measurement": "mass density", "setting": "323.15 K", "value": "988.02 ± 0.2", "unit": "kg/m3"}, {"measurement": "mass density", "setting": "328.15 K", "value": "985.68 ± 0.21", "unit": "kg/m3"}, {"measurement": "mass density", "setting": "333.15 K", "value": "983.17 ± 0.21", "unit": "kg/m3"}]}
